Test results published in ChEMBL document CHEMBL5325488, “Discovery of SMD-3040 as a Potent and Selective SMARCA2 PROTAC Degrader with Strong in vivo Antitumor Activity” (J Med Chem, 2023).

Columns and labels:
[1] = molecular target: SWI/SNF-related matrix-associated actin-dependent regulator of chromatin subfamily A member 2 (Homo sapiens, UniProt P51531); assay: Binding affinity to SMARCA2 (unknown origin)
[2] = molecular target: SWI/SNF-related matrix-associated actin-dependent regulator of chromatin subfamily A member 4 (Homo sapiens, UniProt P51532); assay: Binding affinity to SMARCA4 (unknown origin)
[3] = molecular target: T1, von Hippel-Lindau disease tumor suppressor/SWI/SNF-related matrix-associated actin-dependent regulator of chromatin subfamily A member 2 (Homo sapiens, UniProt P51531+P40337); assay: PROTAC activity at VHL/SMARCA2 in human MV4-11 cells assessed as induction of SMARCA2 degradation by measuring maximal efficacy incubated for 18 hrs by Western blotting analysis relative to control; type: cell-based
Target sequence in this assay (P40337 whole entry, looked up): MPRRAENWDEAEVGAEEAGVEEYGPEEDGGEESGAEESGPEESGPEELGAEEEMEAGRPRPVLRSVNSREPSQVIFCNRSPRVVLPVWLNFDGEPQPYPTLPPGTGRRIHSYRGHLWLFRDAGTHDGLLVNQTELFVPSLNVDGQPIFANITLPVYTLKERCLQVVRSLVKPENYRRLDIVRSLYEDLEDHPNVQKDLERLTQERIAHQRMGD
Target sequence in this assay (P51531 whole entry, looked up): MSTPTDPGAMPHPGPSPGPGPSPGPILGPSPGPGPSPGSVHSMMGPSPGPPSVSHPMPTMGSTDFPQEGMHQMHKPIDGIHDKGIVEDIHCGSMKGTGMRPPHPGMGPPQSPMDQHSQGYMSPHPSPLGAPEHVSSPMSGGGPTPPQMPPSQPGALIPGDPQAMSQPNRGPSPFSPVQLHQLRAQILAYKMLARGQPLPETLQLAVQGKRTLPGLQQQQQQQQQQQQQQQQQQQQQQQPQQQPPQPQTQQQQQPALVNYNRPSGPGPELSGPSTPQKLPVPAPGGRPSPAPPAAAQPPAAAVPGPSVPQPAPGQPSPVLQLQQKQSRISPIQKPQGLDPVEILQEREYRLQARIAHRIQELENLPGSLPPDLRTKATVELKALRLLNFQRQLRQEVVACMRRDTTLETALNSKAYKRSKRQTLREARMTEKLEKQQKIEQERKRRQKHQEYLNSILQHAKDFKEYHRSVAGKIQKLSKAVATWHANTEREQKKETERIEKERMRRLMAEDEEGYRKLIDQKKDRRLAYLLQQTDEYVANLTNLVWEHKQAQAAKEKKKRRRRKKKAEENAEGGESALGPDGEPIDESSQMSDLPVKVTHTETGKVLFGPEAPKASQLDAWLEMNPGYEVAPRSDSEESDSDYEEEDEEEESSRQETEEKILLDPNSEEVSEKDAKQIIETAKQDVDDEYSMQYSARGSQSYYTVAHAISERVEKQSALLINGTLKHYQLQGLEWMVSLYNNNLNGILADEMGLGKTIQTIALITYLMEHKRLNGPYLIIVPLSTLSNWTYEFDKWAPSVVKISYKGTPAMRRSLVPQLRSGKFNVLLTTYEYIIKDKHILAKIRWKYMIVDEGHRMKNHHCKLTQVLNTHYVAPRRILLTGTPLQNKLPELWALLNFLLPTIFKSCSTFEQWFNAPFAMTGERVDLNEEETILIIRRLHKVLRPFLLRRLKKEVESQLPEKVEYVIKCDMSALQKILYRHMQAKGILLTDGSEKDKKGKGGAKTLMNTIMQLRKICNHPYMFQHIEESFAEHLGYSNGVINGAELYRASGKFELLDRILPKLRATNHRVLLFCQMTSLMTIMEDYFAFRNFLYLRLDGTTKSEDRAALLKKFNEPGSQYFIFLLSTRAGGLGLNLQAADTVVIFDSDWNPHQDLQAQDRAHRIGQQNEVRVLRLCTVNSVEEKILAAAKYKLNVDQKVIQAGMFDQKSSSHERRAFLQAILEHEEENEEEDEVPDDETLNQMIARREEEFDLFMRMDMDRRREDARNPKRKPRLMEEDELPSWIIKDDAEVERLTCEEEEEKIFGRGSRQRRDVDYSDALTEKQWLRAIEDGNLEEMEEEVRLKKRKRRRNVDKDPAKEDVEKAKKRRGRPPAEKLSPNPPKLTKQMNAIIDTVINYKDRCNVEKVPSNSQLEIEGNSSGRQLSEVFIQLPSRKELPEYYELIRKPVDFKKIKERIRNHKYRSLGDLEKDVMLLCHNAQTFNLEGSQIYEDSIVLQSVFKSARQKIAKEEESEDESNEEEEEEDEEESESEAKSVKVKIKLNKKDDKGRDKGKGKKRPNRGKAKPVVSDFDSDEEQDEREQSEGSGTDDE

[4] = molecular target: T2, von Hippel-Lindau disease tumor suppressor/SWI/SNF-related matrix-associated actin-dependent regulator of chromatin subfamily A member 4 (Homo sapiens, UniProt P51532+P40337); assay: PROTAC activity at VHL/SMARCA4 in human MV4-11 cells assessed as induction of […] degradation by measuring maximal efficacy incubated for 18 hrs by Western blotting analysis relative to control; type: cell-based
Target sequence in this assay (P40337 whole entry, looked up, the tested form may be a part): as the sequence (P40337 whole entry, looked up) above
Target sequence in this assay (P51532 whole entry, looked up, the tested form may be a part): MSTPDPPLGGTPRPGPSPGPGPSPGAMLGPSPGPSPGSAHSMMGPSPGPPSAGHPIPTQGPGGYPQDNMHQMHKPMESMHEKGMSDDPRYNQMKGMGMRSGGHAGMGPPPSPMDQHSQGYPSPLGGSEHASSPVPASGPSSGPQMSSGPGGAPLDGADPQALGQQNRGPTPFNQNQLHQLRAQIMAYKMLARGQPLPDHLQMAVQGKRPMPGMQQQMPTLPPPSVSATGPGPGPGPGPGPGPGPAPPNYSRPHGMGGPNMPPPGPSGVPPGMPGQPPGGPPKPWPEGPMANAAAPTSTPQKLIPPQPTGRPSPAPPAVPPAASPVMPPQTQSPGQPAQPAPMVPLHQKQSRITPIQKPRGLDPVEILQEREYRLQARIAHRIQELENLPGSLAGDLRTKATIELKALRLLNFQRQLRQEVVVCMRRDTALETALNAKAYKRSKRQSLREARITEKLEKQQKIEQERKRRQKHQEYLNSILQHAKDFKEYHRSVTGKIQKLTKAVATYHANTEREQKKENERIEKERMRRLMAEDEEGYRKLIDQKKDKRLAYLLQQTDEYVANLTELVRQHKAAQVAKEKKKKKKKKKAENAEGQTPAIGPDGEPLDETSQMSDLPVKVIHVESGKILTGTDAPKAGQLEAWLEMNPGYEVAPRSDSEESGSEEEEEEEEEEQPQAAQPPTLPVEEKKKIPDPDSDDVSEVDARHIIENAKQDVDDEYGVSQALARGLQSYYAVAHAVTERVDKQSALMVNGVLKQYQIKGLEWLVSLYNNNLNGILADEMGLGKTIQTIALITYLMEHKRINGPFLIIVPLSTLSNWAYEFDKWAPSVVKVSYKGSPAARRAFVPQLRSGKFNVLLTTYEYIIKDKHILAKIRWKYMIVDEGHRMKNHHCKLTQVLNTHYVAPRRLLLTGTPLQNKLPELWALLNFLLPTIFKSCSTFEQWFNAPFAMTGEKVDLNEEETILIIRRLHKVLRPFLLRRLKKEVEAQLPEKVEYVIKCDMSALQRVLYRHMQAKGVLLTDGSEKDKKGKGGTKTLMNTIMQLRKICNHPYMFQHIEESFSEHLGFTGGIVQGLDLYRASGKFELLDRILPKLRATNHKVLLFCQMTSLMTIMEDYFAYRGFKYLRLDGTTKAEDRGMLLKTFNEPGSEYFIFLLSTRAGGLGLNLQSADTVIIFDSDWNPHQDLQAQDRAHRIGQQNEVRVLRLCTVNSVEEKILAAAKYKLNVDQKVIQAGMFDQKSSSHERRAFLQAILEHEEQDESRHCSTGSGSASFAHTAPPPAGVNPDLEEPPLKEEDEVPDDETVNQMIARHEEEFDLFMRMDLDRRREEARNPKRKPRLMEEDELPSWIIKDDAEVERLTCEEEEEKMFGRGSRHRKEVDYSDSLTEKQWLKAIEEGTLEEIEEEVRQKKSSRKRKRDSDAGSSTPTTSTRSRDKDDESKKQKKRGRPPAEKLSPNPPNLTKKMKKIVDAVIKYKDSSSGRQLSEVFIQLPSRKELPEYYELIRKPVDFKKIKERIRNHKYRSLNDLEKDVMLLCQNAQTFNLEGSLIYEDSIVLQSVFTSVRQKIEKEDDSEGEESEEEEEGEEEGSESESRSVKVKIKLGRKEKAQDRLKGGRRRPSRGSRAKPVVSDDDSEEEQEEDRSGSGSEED

[5] = molecular target: T1, von Hippel-Lindau disease tumor suppressor/SWI/SNF-related matrix-associated actin-dependent regulator of chromatin subfamily A member 2; assay: PROTAC activity at VHL/C-terminal HiBiT fused SMARCA2 in human HeLa cells assessed as induction of SMARCA2 degradation incubated for 24 hrs by Nano-Glo HiBiT analysis; type: cell-based
Target sequence in this assay (P51531 whole entry): as the sequence (P51531 whole entry, looked up) above
Target sequence in this assay (P40337 whole entry): as the sequence (P40337 whole entry, looked up) above

[6] = molecular target: T1, von Hippel-Lindau disease tumor suppressor/SWI/SNF-related matrix-associated actin-dependent regulator of chromatin subfamily A member 2; assay: PROTAC activity at VHL/C-terminal HiBiT fused SMARCA2 in human HeLa cells assessed as induction of SMARCA2 degradation by measuring maximal efficacy incubated for 24 hrs by Nano-Glo HiBiT analysis relative to control; type: cell-based
Target sequence in this assay (P40337 whole entry, looked up): as above
Target sequence in this assay (P51531 whole entry, looked up): as the sequence (P51531 whole entry, looked up) above

[7] = molecular target: T2, von Hippel-Lindau disease tumor suppressor/SWI/SNF-related matrix-associated actin-dependent regulator of chromatin subfamily A member 4; assay: PROTAC activity at VHL/C-terminal HiBiT fused SMARCA4 in human HeLa cells assessed as induction of SMARCA4 degradation incubated for 24 hrs by Nano-Glo HiBiT analysis; type: cell-based
Target sequence in this assay (P51532 whole entry, the tested form may be a part): as the sequence (P51532 whole entry, looked up, the tested form may be a part) above
Target sequence in this assay (P40337 whole entry, the tested form may be a part): as the sequence (P40337 whole entry, looked up) above

[8] = molecular target: T2, von Hippel-Lindau disease tumor suppressor/SWI/SNF-related matrix-associated actin-dependent regulator of chromatin subfamily A member 4; assay: PROTAC activity at VHL/C-terminal HiBiT fused SMARCA4 in human HeLa cells assessed as induction of SMARCA4 degradation by measuring maximal efficacy incubated for 24 hrs by Nano-Glo HiBiT analysis relative to control; type: cell-based
Target sequence in this assay (P40337 whole entry, looked up, the tested form may be a part): as the sequence (P40337 whole entry, looked up) above
Target sequence in this assay (P51532 whole entry, looked up, the tested form may be a part): as the sequence (P51532 whole entry, looked up, the tested form may be a part) above

NCI-H1299 [9] = assay: Antiproliferative activity against SMARCA4-deficient human NCI-H1299 cells assessed as cell growth inhibition measured after 7 days by WST-8 assay; type: functional; details: NCI-H1299, 168 h, time 7 day
NCI-H838 [10] = assay: Antiproliferative activity against SMARCA4-deficient human NCI-H838 cells assessed as cell growth inhibition measured after 7 days by WST-8 assay; type: functional; details: NCI-H838, 168 h, time 7 day
A549 [11] = assay: Antiproliferative activity against SMARCA4-deficient human A549 cells assessed as cell growth inhibition measured after 7 days by WST-8 assay; type: functional; details: A549, 168 h, time 7 day
NCI-H1944 [12] = assay: Antiproliferative activity against SMARCA4-deficient human NCI-H1944 cells assessed as cell growth inhibition measured after 7 days by WST-8 assay; type: functional; details: NCI-H1944, 168 h, time 7 day
NCI-H1793 [13] = assay: Antiproliferative activity against SMARCA4-deficient human NCI-H1793 cells assessed as cell growth inhibition measured after 7 days by WST-8 assay; type: functional; details: NCI-H1793, 168 h, time 7 day
SK-MEL-5 [14] = assay: Antiproliferative activity against SMARCA4-deficient human SK-MEL-5 cells assessed as cell growth inhibition measured after 7 days by WST-8 assay; type: functional; details: SK-MEL-5, 168 h, time 7 day
NCI-H1693 [15] = assay: Antiproliferative activity against SMARCA4-deficient human NCI-H1693 cells assessed as cell growth inhibition measured after 7 days by WST-8 assay; type: functional; details: NCI-H1693, 168 h, time 7 day
[16] = Antiproliferative activity against SMARCA4-deficient human NCI-H1568 cells assessed as cell growth inhibition measured after 7 days by WST-8 assay; type: functional; details: NCI-H1568, 168 h, time 7 day
NCI-H1792 [17] = assay: Antiproliferative activity against human NCI-H1792 cells expressing wild-type SMARCA2 assessed as cell growth inhibition measured after 7 days by WST-8 assay; type: functional; details: NCI-H1792, 168 h, time 7 day
NCI-H1975 [18] = assay: Antiproliferative activity against human NCI-H1975 cells expressing wild-type SMARCA2 assessed as cell growth inhibition measured after 7 days by WST-8 assay; type: functional; details: NCI-H1975, 168 h, time 7 day
SK-MEL-28 [19] = assay: Antiproliferative activity against human SK-MEL-28 cells expressing wild-type SMARCA2 assessed as cell growth inhibition measured after 7 days by WST-8 assay; type: functional; details: SK-MEL-28, 168 h, time 7 day
NCI-H647 [20] = assay: Antiproliferative activity against human NCI-H647 cells expressing wild-type SMARCA2 assessed as cell growth inhibition measured after 7 days by WST-8 assay; type: functional; details: NCI-H647, 168 h, time 7 day
NCI-H1299 [21] = assay: Antiproliferative activity against SMARCA4-deficient human NCI-H1299 cells assessed as cell growth inhibition by measuring maximal efficacy measured after 7 days by WST-8 assay relative to control; type: functional; details: time 7 day
NCI-H838 [22] = assay: Antiproliferative activity against SMARCA4-deficient human NCI-H838 cells assessed as cell growth inhibition by measuring maximal efficacy measured after 7 days by WST-8 assay relative to control; type: functional; details: time 7 day
A549 [23] = assay: Antiproliferative activity against SMARCA4-deficient human A549 cells assessed as cell growth inhibition by measuring maximal efficacy measured after 7 days by WST-8 assay relative to control; type: functional; details: time 7 day
NCI-H1944 [24] = assay: Antiproliferative activity against SMARCA4-deficient human NCI-H1944 cells assessed as cell growth inhibition by measuring maximal efficacy measured after 7 days by WST-8 assay relative to control; type: functional; details: time 7 day
NCI-H1793 [25] = assay: Antiproliferative activity against SMARCA4-deficient human NCI-H1793 cells assessed as cell growth inhibition by measuring maximal efficacy measured after 7 days by WST-8 assay relative to control; type: functional; details: time 7 day
SK-MEL-5 [26] = assay: Antiproliferative activity against SMARCA4-deficient human SK-MEL-5 cells assessed as cell growth inhibition by measuring maximal efficacy measured after 7 days by WST-8 assay relative to control; type: functional; details: time 7 day
NCI-H1693 [27] = assay: Antiproliferative activity against SMARCA4-deficient human NCI-H1693 cells assessed as cell growth inhibition by measuring maximal efficacy measured after 7 days by WST-8 assay relative to control; type: functional; details: time 7 day
[28] = Antiproliferative activity against SMARCA4-deficient human NCI-H1568 cells assessed as cell growth inhibition by measuring maximal efficacy measured after 7 days by WST-8 assay relative to control; type: functional; details: time 7 day
NCI-H1792 [29] = assay: Antiproliferative activity against human NCI-H1792 cells expressing wild-type SMARCA2 assessed as cell growth inhibition by measuring maximal efficacy measured after 7 days by WST-8 assay relative to control; type: functional; details: time 7 day
NCI-H1975 [30] = assay: Antiproliferative activity against human NCI-H1975 cells expressing wild-type SMARCA2 assessed as cell growth inhibition by measuring maximal efficacy measured after 7 days by WST-8 assay relative to control; type: functional; details: time 7 day
SK-MEL-28 [31] = assay: Antiproliferative activity against human SK-MEL-28 cells expressing wild-type SMARCA2 assessed as cell growth inhibition by measuring maximal efficacy measured after 7 days by WST-8 assay relative to control; type: functional; details: time 7 day
NCI-H647 [32] = assay: Antiproliferative activity against human NCI-H647 cells expressing wild-type SMARCA2 assessed as cell growth inhibition by measuring maximal efficacy measured after 7 days by WST-8 assay relative to control; type: functional; details: time 7 day

Sequence of SWI/SNF-related matrix-associated actin-dependent regulator of chromatin subfamily A member 4 (P51532 whole entry): as the sequence (P51532 whole entry, looked up, the tested form may be a part) above
Sequence of SWI/SNF-related matrix-associated actin-dependent regulator of chromatin subfamily A member 2 (P51531 whole entry): as the sequence (P51531 whole entry, looked up) above

SMILES: Cn1cc(-c2cc(-c3ccccc3O)nnc2N)cn1
- Kd [1]: 10 nM
- Kd [2]: 12.8 nM

SMILES: Cc1ncsc1-c1ccc(CNC(=O)[C@@H]2C[C@@H](O)CN2C(=O)[C@@H](NC(=O)C2(F)CC2)C(C)(C)C)c(OCCOc2ccc(CN3CCN(c4cc(-c5ccccc5O)nnc4N)CC3)cc2)c1
- Emax [3]: > 95%
- Emax [4]: > 95%

SMILES: Cc1ncsc1-c1ccc([C@H](C)NC(=O)[C@@H]2C[C@@H](O)CN2C(=O)[C@@H](NC(=O)CCCCCCCCCn2cc(-c3cc(-c4ccccc4O)nnc3N)cn2)C(C)(C)C)cc1
- DC50 [5]: 2 nM
- Emax [6]: 93%
- DC50 [7]: 8 nM
- Emax [8]: 94%
- GI50 (NCI-H1299 [9]): 100 nM
- GI50 (NCI-H838 [10]): 48 nM
- GI50 (A549 [11]): 16 nM
- GI50 (NCI-H1944 [12]): 4.8 nM
- GI50 (NCI-H1793 [13]): 5 nM
- GI50 (SK-MEL-5 [14]): 2.5 nM
- GI50 (NCI-H1693 [15]): 3.3 nM
- GI50 [16]: 2.5 nM
- GI50 (NCI-H1792 [17]): 60 nM
- GI50 (NCI-H1975 [18]): 38 nM
- GI50 (SK-MEL-28 [19]): 32 nM
- GI50 (NCI-H647 [20]): 76 nM
- Imax (NCI-H1299 [21]): 81%
- Imax (NCI-H838 [22]): 91%
- Imax (A549 [23]): 53%
- Imax (NCI-H1944 [24]): 87%
- Imax (NCI-H1793 [25]): 72%
- Imax (SK-MEL-5 [26]): 95%
- Imax (NCI-H1693 [27]): 81%
- Imax [28]: 82%
- Imax (NCI-H1792 [29]): 86%
- Imax (NCI-H1975 [30]): 63%
- Imax (SK-MEL-28 [31]): 90%
- Imax (NCI-H647 [32]): 77%

SMILES: Cc1cc([C@H](C(=O)N2C[C@H](O)C[C@H]2C(=O)N[C@@H](CC(=O)NCCCCCCCCn2cc(-c3cc(-c4ccccc4O)nnc3N)cn2)c2ccc(-c3scnc3C)cc2)C(C)C)on1
- DC50 [5]: 67 nM
- Emax [6]: 91%
- DC50 [7]: 66 nM
- Emax [8]: 93%

SMILES: Cc1ncsc1-c1ccc([C@H](C)NC(=O)[C@@H]2C[C@@H](O)CN2C(=O)[C@@H](NC(=O)C2CCC(N3CC4(CCC(n5cc(-c6cc(-c7ccccc7O)nnc6N)cn5)CC4)C3)CC2)C(C)(C)C)cc1 (some centres not stated)
- DC50 [5]: 25 nM
- Emax [6]: 85%
- DC50 [7]: > 1000 nM
- Emax [8]: 55%

SMILES: Cc1cc([C@H](C(=O)N2C[C@H](O)C[C@H]2C(=O)N[C@@H](CC(=O)NCCCCCCCCCCCCn2cc(-c3cc(-c4ccccc4O)nnc3N)cn2)c2ccc(-c3scnc3C)cc2)C(C)C)on1
- DC50 [5]: 46 nM
- Emax [6]: 93%
- DC50 [7]: 90 nM
- Emax [8]: 89%

SMILES: Cc1ncsc1-c1ccc([C@H](C)NC(=O)[C@@H]2C[C@@H](O)CN2C(=O)[C@@H](NC(=O)CCCCCN2CCC(n3cc(-c4cc(-c5ccccc5O)nnc4N)cn3)CC2)C(C)(C)C)cc1
- DC50 [5]: 6 nM
- Emax [6]: 94%
- DC50 [7]: 248 nM
- Emax [8]: 77%

SMILES: Cc1ncsc1-c1ccc([C@H](C)NC(=O)[C@@H]2C[C@@H](O)CN2C(=O)[C@@H](NC(=O)CCCCn2cc(-c3cc(-c4ccccc4O)nnc3N)cn2)C(C)(C)C)cc1
- DC50 [5]: 134 nM
- Emax [6]: 85%
- DC50 [7]: > 1000 nM
- Emax [8]: 57%

SMILES: Cc1ncsc1-c1ccc([C@H](C)NC(=O)[C@@H]2C[C@@H](O)CN2C(=O)[C@@H](NC(=O)[C@H]2CC[C@H](CN3CCC4(CCC(n5cc(-c6cc(-c7ccccc7O)nnc6N)cn5)CC4)CC3)CC2)C(C)(C)C)cc1
- DC50 [5]: 5 nM
- Emax [6]: 90%
- DC50 [7]: 219 nM
- Emax [8]: 66%

SMILES: Cc1cc([C@H](C(=O)N2C[C@H](O)C[C@H]2C(=O)N[C@@H](CC(=O)NCCCCCCCn2cc(-c3cc(-c4ccccc4O)nnc3N)cn2)c2ccc(-c3scnc3C)cc2)C(C)C)on1
- DC50 [5]: 96 nM
- Emax [6]: 91%
- DC50 [7]: 91 nM
- Emax [8]: 92%

SMILES: Cc1ncsc1-c1ccc([C@H](C)NC(=O)[C@@H]2C[C@@H](O)CN2C(=O)[C@@H](NC(=O)CCCCCCCCCCn2cc(-c3cc(-c4ccccc4O)nnc3N)cn2)C(C)(C)C)cc1
- DC50 [5]: 6 nM
- Emax [6]: 93%
- DC50 [7]: 47 nM
- Emax [8]: 87%

SMILES: Cc1ncsc1-c1ccc([C@H](C)NC(=O)[C@@H]2C[C@@H](O)CN2C(=O)[C@@H](NC(=O)CCCCCCn2cc(-c3cc(-c4ccccc4O)nnc3N)cn2)C(C)(C)C)cc1
- DC50 [5]: 16 nM
- Emax [6]: 89%
- DC50 [7]: 212 nM
- Emax [8]: 81%

SMILES: Cc1ncsc1-c1ccc([C@H](C)NC(=O)[C@@H]2C[C@@H](O)CN2C(=O)[C@@H](NC(=O)CCn2cc(-c3cc(-c4ccccc4O)nnc3N)cn2)C(C)(C)C)cc1
- DC50 [5]: > 1000 nM
- Emax [6]: 19%
- DC50 [7]: > 1000 nM
- Emax [8]: 0%

SMILES: Cc1cc([C@H](C(=O)N2C[C@H](O)C[C@H]2C(=O)N[C@@H](CC(=O)NCCCCCCCCCCn2cc(-c3cc(-c4ccccc4O)nnc3N)cn2)c2ccc(-c3scnc3C)cc2)C(C)C)on1
- DC50 [5]: 37 nM
- Emax [6]: 95%
- DC50 [7]: 53 nM
- Emax [8]: 93%

SMILES: CN1CCN(/C=C2\CCn3c2nc(=O)c2c(Cl)cccc23)CC1
- Kd [2]: 417 nM
